Where “and” joins values, the source holds several entries; their conditions need not be identical. Equal entries are not always repeated.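 Where inhibition never reached the appropriate level, the endpoint shown equals the highest concentration tested. Otherwise, values were interpolated linearly from a five-concentration, 48-hour dose response in 96-well plates. GI50 is the concentration that inhibits growth by half. TGI is the concentration that stops growth completely.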
What was measured:
Assay in all cases: NCI tumour cell line growth inhibition, 48 h
SF-539 CNS = tested on: SF-539 CNS
T-47D breast = tested on: T-47D breast
NCI-H23 lung = tested on: NCI-H23 lung
HCT-15 colon = tested on: HCT-15 colon
NCI-H460 lung = tested on: NCI-H460 lung
SNB-19 CNS = tested on: SNB-19 CNS
HOP-92 NSCLC = tested on: HOP-92 NSCLC
LOX IMVI melanoma = tested on: LOX IMVI melanoma
CCRF-CEM leukemia = tested on: CCRF-CEM leukemia
RPMI-8226 leukemia = tested on: RPMI-8226 leukemia
A549 NSCLC = tested on: A549 NSCLC
786-0 renal = tested on: 786-0 renal
EKVX NSCLC = tested on: EKVX NSCLC
KM12 colon = tested on: KM12 colon
HOP-62 NSCLC = tested on: HOP-62 NSCLC
SK-MEL-28 melanoma = tested on: SK-MEL-28 melanoma
UO-31 renal = tested on: UO-31 renal
NCI-H226 lung = tested on: NCI-H226 lung
IGROV1 ovarian = tested on: IGROV1 ovarian
HT29 colon = tested on: HT29 colon
M14 melanoma = tested on: M14 melanoma
OVCAR-4 ovarian = tested on: OVCAR-4 ovarian
OVCAR-5 ovarian = tested on: OVCAR-5 ovarian
SF-268 CNS = tested on: SF-268 CNS
SNB-75 CNS = tested on: SNB-75 CNS
U251 CNS = tested on: U251 CNS
K-562 leukemia = tested on: K-562 leukemia
MCF7 breast = tested on: MCF7 breast
OVCAR-8 ovarian = tested on: OVCAR-8 ovarian
SW-620 colon = tested on: SW-620 colon
BT-549 breast = tested on: BT-549 breast
MDA-MB-231 breast = tested on: MDA-MB-231 breast
HCC-2998 colon = tested on: HCC-2998 colon
A498 renal = tested on: A498 renal
OVCAR-3 ovarian = tested on: OVCAR-3 ovarian
RXF 393 renal = tested on: RXF 393 renal
HCT-116 colon = tested on: HCT-116 colon
SN12C renal = tested on: SN12C renal
HL-60(TB) leukemia = tested on: HL-60(TB) leukemia
CAKI-1 renal = tested on: CAKI-1 renal
PC-3 prostate = tested on: PC-3 prostate
ACHN renal = tested on: ACHN renal
SR leukemia = tested on: SR leukemia
SK-MEL-5 melanoma = tested on: SK-MEL-5 melanoma
MALME-3M melanoma = tested on: MALME-3M melanoma
TK-10 renal = tested on: TK-10 renal
NCI/ADR-RES ovarian = tested on: NCI/ADR-RES ovarian
SK-OV-3 ovarian = tested on: SK-OV-3 ovarian
DU-145 prostate = tested on: DU-145 prostate
COLO 205 colon = tested on: COLO 205 colon
NCI-H522 lung = tested on: NCI-H522 lung
UACC-62 melanoma = tested on: UACC-62 melanoma
MDA-MB-435 = tested on: MDA-MB-435
MOLT-4 leukemia = tested on: MOLT-4 leukemia
UACC-257 melanoma = tested on: UACC-257 melanoma
SK-MEL-2 melanoma = tested on: SK-MEL-2 melanoma
SF-295 CNS = tested on: SF-295 CNS

## COc1cccc(OCCCN)c1-c1cc(Nc2cnc(C#N)cn2)n[nH]1
SF-539 CNS
  GI50: 0.00366 µM
  TGI: 0.0627 µM and 0.12 µM
T-47D breast
  GI50: 7.91 µM
  TGI: 24 µM
NCI-H23 lung
  GI50: 0.00479 µM and < 0.0109 µM
  TGI: 8.88 µM
HCT-15 colon
  GI50: 0.0585 µM and 0.07 µM
  TGI: 14 µM
NCI-H460 lung
  GI50: 0.0487 µM and 0.0436 µM
  TGI: 12.6 µM
SNB-19 CNS
  GI50: 0.0188 µM and 0.0256 µM
  TGI: 19.5 µM
HOP-92 NSCLC
  GI50: < 0.0166 µM
  TGI: 8.76 µM
LOX IMVI melanoma
  GI50: 0.0166 µM and 0.0254 µM
  TGI: 9.07 µM
CCRF-CEM leukemia
  TGI: > 73 µM
RPMI-8226 leukemia
  GI50: 0.197 µM and 0.0489 µM
  TGI: 7.59 µM
A549 NSCLC
  GI50: 0.035 µM and 0.0452 µM
  TGI: 15.1 µM
786-0 renal
  GI50: 0.00328 µM
  TGI: 0.706 µM
EKVX NSCLC
  TGI: 45.6 µM
KM12 colon
  GI50: 0.0179 µM and 0.017 µM
  TGI: 11.1 µM
HOP-62 NSCLC
  GI50: 0.0136 µM and 0.0303 µM
  TGI: 13 µM
SK-MEL-28 melanoma
  GI50: 0.955 µM and 3.11 µM
  TGI: 17.4 µM
UO-31 renal
  GI50: 0.0279 µM and 0.0321 µM
NCI-H226 lung
  GI50: 2.23 µM
  TGI: 8.39 µM
IGROV1 ovarian
  TGI: 15.6 µM
HT29 colon
  GI50: 0.0289 µM and 0.0238 µM
  TGI: 1.28 µM
M14 melanoma
  GI50: 0.00276 µM
  TGI: 0.0135 µM
OVCAR-4 ovarian
  GI50: 0.00793 µM and < 0.0249 µM
  TGI: 14.9 µM
OVCAR-5 ovarian
  GI50: 0.0381 µM and 0.043 µM
  TGI: 15.2 µM
SF-268 CNS
  GI50: 0.0871 µM and 0.0754 µM
  TGI: 13.2 µM
SNB-75 CNS
  GI50: 2.07 µM
  TGI: 13.9 µM
U251 CNS
  GI50: 0.0759 µM and 0.0569 µM
  TGI: 14.4 µM
K-562 leukemia
  GI50: 0.00444 µM
  TGI: 12.8 µM
MCF7 breast
  GI50: 0.00304 µM
  TGI: 18.2 µM
OVCAR-8 ovarian
  GI50: 0.00591 µM
  TGI: 1.44 µM
SW-620 colon
  GI50: 0.0573 µM and 0.054 µM
  TGI: 12 µM
BT-549 breast
  GI50: 0.0797 µM and 0.0856 µM
  TGI: 8.2 µM
MDA-MB-231 breast
  GI50: 0.933 µM
  TGI: 11.9 µM
HCC-2998 colon
  GI50: 0.00484 µM
  TGI: 11.2 µM
A498 renal
  GI50: 0.00476 µM
  TGI: 0.23 µM and < 0.0269 µM
OVCAR-3 ovarian
  GI50: 0.00761 µM and < 0.0155 µM
  TGI: 11.4 µM
RXF 393 renal
  GI50: 0.00496 µM
  TGI: 0.0616 µM and 0.156 µM
HCT-116 colon
  GI50: 0.105 µM and 0.236 µM
  TGI: 12.9 µM
SN12C renal
  GI50: 0.189 µM and 0.13 µM
  TGI: 10.8 µM
HL-60(TB) leukemia
  GI50: 0.00877 µM and 0.0231 µM
  TGI: 1.14 µM
CAKI-1 renal
  GI50: 0.405 µM and 0.0455 µM
  TGI: 11.9 µM
PC-3 prostate
  GI50: 2.41 µM
  TGI: 21.5 µM
ACHN renal
  GI50: 0.00332 µM
  TGI: 0.0146 µM
SR leukemia
  GI50: 0.0032 µM
  TGI: 1.25 µM
SK-MEL-5 melanoma
  GI50: 0.0318 µM and 0.0224 µM
  TGI: 1.59 µM
MALME-3M melanoma
  TGI: 16.1 µM
TK-10 renal
  GI50: 0.0065 µM
  TGI: 0.417 µM
NCI/ADR-RES ovarian
  GI50: 0.071 µM and 0.054 µM
  TGI: 17.3 µM
SK-OV-3 ovarian
  GI50: 0.00474 µM
  TGI: 7.02 µM
DU-145 prostate
  GI50: 0.00769 µM and 0.0131 µM
  TGI: 15.4 µM
COLO 205 colon
  GI50: 0.0419 µM and 0.0677 µM
  TGI: 11.2 µM
NCI-H522 lung
  GI50: 0.261 µM and 0.0454 µM
  TGI: 2.06 µM
UACC-62 melanoma
  GI50: 0.0231 µM
MDA-MB-435
  GI50: 0.00423 µM
  TGI: 1.23 µM
MOLT-4 leukemia
  GI50: 0.00391 µM
  TGI: 5.69 µM
UACC-257 melanoma
  GI50: 0.142 µM
  TGI: 13.1 µM
SK-MEL-2 melanoma
  GI50: 0.00476 µM
  TGI: 0.0644 µM
SF-295 CNS
  GI50: 0.0037 µM
  TGI: 13.4 µM

— PubChem BioAssay (NCI)
